Laboratory results from ChEMBL document CHEMBL5608113, “Targeting of CAF-induced therapy resistance in CRC organoid-stroma co-cultures” (2024).

Columns and labels:
Format in all cases: functional, Homo sapiens
Details in all cases: Homo sapiens, Concentration 10 uM; read-out: Cell Viability
Colon cancer organoid [1] = test: Targeting of F14 CAF-induced therapy resistance in O14 CRC organoid-stroma co-culture. Cell viability is reported without Gefitinib.
Colon cancer organoid [2] = test: Targeting of F14 CAF-induced therapy resistance in O14 CRC organoid-stroma co-culture. Cell viability is reported with Gefitinib.
Colon cancer organoid [3] = test: Targeting of F14 CAF-induced therapy resistance in O23 CRC organoid-stroma co-culture. Cell viability is reported without Gefitinib.
Colon cancer organoid [4] = test: Targeting of F14 CAF-induced therapy resistance in O23 CRC organoid-stroma co-culture. Cell viability is reported with Gefitinib.
Colon cancer organoid [5] = test: Targeting of F14 CAF-induced therapy resistance in O23 CRC organoid-stroma co-culture. Cell viability is reported with SN-38.

| Compound | viability at 10 µM (Colon cancer organoid [1]) | viability at 10 µM (Colon cancer organoid [2]) | viability at 10 µM (Colon cancer organoid [3]) | viability at 10 µM (Colon cancer organoid [4]) | viability at 10 µM (Colon cancer organoid [5]) |
| --- | --- | --- | --- | --- | --- |
| CNc1nc(-c2ccc3c(N)n[nH]c3c2)cc(N2C[C@@H](C(=O)NC3CCCCC3)CC[C@H]2C)n1 | 57.6% | 17.9% | 44.8% | 24.3% | 39.8% |
| CCCc1cc(C)[nH]c(=O)c1CNC(=O)c1cc(-c2ccnc(N3CCN(C)CC3)c2)cc2c1cnn2C(C)C | 73% | 63.9% | 119% | 74.3% | 94.5% |
| O=C(c1ccc(C(=O)N2CCC(N3CCCC3)CC2)c(Nc2ccccc2)c1)N1CCC(N2CCCC2)CC1 | 121% | 47.7% | 122% | 57.4% | 67.2% |
| COc1cc2c(NC3CCN(C(C)C)CC3)nc(N3CCC(F)(F)CC3)nc2cc1OCCCN1CCCC1 | 71.2% | 56.9% | 107% | 62.4% | 91.7% |
| CC(C)N(CCCNC(=O)Nc1ccc(C(C)(C)C)cc1)C[C@H]1O[C@@H](n2cc(Br)c3c(N)ncnc32)[C@H](O)[C@@H]1O | 69.6% | 45.4% | 41.3% | 34% | 19.8% |
| COc1cc2c(cc1OCCCN1CCCC1)N=C(N)C21CCC1 | 82.9% | 46.9% | 122% | 55.4% | 76.1% |
| CCCc1cc(C)[nH]c(=O)c1CNC(=O)c1cc(-c2ccc(N3CCN(C(C)C)CC3)nc2)cc2c1cnn2C(C)C | 95.6% | 77.8% | 152% | 68.8% | 102% |
| CC(C)NC(=O)N1CC[C@H](NC2=Nc3cc(F)ccc3N(CC(F)F)c3ccc(Cl)cc32)C1 | 89.7% | 36% | 79% | 61.4% | 42.9% |
| Clc1cccc(-c2nnnn2Cc2cccnc2)c1Cl | 127% | 60.2% | 106% | 47.8% | 77.1% |
| CN1CCN(c2ccc(-c3cccc(CN4CCOCC4)c3)cc2NC(=O)c2c[nH]c(=O)cc2C(F)(F)F)CC1 | 99.7% | 65.8% | 131% | 62.5% | 102% |
| Cc1nc(N2CC[C@H](O)C2)ncc1-c1cc(C(F)(F)F)cc2[nH]ncc12 | 91% | 21.1% | 123% | 51.5% | 82.7% |
| CC(C)Oc1ccc(-c2c[nH]cc2CN(C)CCN)cc1 | 25.7% | 31.6% | 132% | 47.4% | 77% |
| CNCCN1CCC(OCc2ccccc2)CC1 | 42.5% | 43.9% | 139% | 59.5% | 69.2% |
| O=C(NCC(=O)N1CCCC1)Nc1ccc2cnccc2c1 | 83.8% | 76.1% | 179% | 68.5% | 39% |
| CCNC(=O)c1cc2c(N3CCOC[C@@H]3C)ccnc2n1C | 70.2% | 36.3% | 104% | 38.3% | 84.1% |
| Nc1ncnc2c1ccn2[C@@H]1O[C@H]([C@H](O)c2ccccc2)[C@@H](O)[C@H]1O | 14.9% | 14.9% | 97.6% | 45% | 68.9% |
| COc1cc(Nc2ccnc3ccc(Br)cc23)cc(OC)c1OC | 18.2% | 8.76% | 35% | 6.32% | 12.5% |
| CCN(CC)S(=O)(=O)Nc1cccc(-c2ccc3c(NC(=O)C4CC4)n[nH]c3c2)c1 | 144% | 50.5% | 120% | 65.5% | 69.2% |
| CC(C)C(=O)Nc1n[nH]c2cc(-c3cccc(NS(=O)(=O)C4CC4)c3)ccc12 | 129% | 57.8% | 115% | 54.8% | 62.1% |
| Clc1cc2c(NC3CCCC3)nnc(-c3ccncc3)c2cc1Cl | 91.2% | 65.8% | 142% | 72.9% | 114% |
| O=C(NC[C@H](O)CN1CCc2ccccc2C1)c1ccnc(NC2CCC2)c1 | 32.6% | 31.9% | 83.1% | 43.2% | 50.6% |

| Compound | viability at 10 µM (Colon cancer organoid [1]) | viability at 10 µM (Colon cancer organoid [2]) | viability at 10 µM (Colon cancer organoid [3]) | viability at 10 µM (Colon cancer organoid [4]) | viability at 10 µM (Colon cancer organoid [5]) |
| --- | --- | --- | --- | --- | --- |
| CN1CCN(Cc2cc(NC(=O)c3ccc4c(c3)CN(c3ccccc3)CC4)cc(C(F)(F)F)c2)CC1 | 115% | 50.8% | 112% | 64.5% | 63.3% |
| Cc1cn(-c2cc(NC(=O)c3ccc4c(c3)CN(c3cncnc3)C[C@@H]4C)cc(C(F)(F)F)c2)cn1 | 149% | 50.6% | 115% | 63.8% | 57.5% |
| CN(C)C(=O)/C(C#N)=C/c1ccc(-c2nc3cnc4[nH]ccc4c3n2C2CCCCC2)o1 | 117% | 47.2% | 96.1% | 56.7% | 65.2% |
| NC1(c2ccc(-c3nc4ccn5c(=O)[nH]nc5c4cc3-c3ccccc3)cc2)CCC1 | 53.7% | 32.7% | 24.5% | 19.9% | 19.5% |
| Cn1cc(-c2ccc3occ(-c4ccccc4-c4ccccc4)c3n2)cn1 | 115% | 75.6% | 153% | 89.5% | 63.4% |
| Cc1cccc(-c2cnc3occ(-c4ccc(C(=O)O)c(C5CCCC5)c4)c3c2)c1 | 112% | 52.4% | 111% | 75.6% | 66.7% |
| C[C@H]1CC(=O)Nc2cc(C(=O)NCCC3CC3)ccc2N1C(=O)N1CC2CC2C1 (stereo not given in full) | 108% | 59.8% | 196% | 142% | 160% |
| CN(C)C(=O)c1ccc(-c2cc(C(=O)N[C@@H]3CCc4ccccc43)no2)cc1O | 77% | 33.6% | 83.1% | 61.6% | 64.6% |
| COc1cc(-c2cn([C@H]3CCc4ccccc4N(CC(F)(F)F)C3=O)nn2)ccc1-n1ccc(C)n1 | 113% | 41.1% | 81.1% | 38.9% | 48.6% |
| O=C(NCCCN1CCOC1=O)c1cnc(NCc2cc(Br)ccc2Br)nc1NC1CCCC1 | 126% | 51.8% | 118% | 55.2% | 61.8% |
| CN(C)C(=O)c1ccc(-c2cc(C(=O)N(C)C3CCCC3)no2)cc1O | 103% | 52.8% | 111% | 55.9% | 76.4% |
| CCN(Cc1ccc(Cl)cc1)c1ncc(C(=O)NCCCN2CCCC2=O)c(NC2CCCC2)n1 | 108% | 46.6% | 105% | 74.3% | 61.6% |
| O=C(NCc1ccccc1)c1ccc(S(=O)(=O)NCc2ccccc2)cc1 | 103% | 40.5% | 97% | 58.1% | 82.9% |
| CCOC(=O)CCNc1cc(N2CCc3ccccc3CC2)nc(-c2cccnc2)n1 | 60.1% | 57.2% | 140% | 90.8% | 79.9% |
| O=C(O)c1ccc(-c2coc3ncc(-c4ccccc4)cc23)cc1Cl | 71.5% | 73.9% | 214% | 172% | 103% |
| O=C([C@@H](Cc1cccc(C(F)(F)F)c1)NS(=O)(=O)c1cc(F)c2c(c1)CCNC2)N1CCCC1 | 114% | 65% | 81.5% | 55.1% | 60.3% |
| CCCCN(Cc1ccccc1)C(=O)c1ccc(S(=O)(=O)Nc2ccccc2)cc1 | 80.8% | 48.8% | 125% | 52.2% | 63.6% |
| COc1cc(OC)cc(-c2noc(N3CCN(C)C4(CCN(c5ccnc(C)c5)CC4)C3)n2)c1 | 103% | 49.2% | 108% | 74.2% | 101% |
| CN(C)C(=O)/C(C#N)=C/c1ccc(-c2nc3cnc4c(ccn4C)c3n2C2CCCCC2)o1 | 107% | 63.9% | 83.6% | 53.6% | 46.5% |
| c1ccc2oc(-c3csc(C4CCN(Cc5nc6ncccc6[nH]5)CC4)n3)cc2c1 | 94.5% | 37.9% | 159% | 66% | 60.8% |
| C[C@H]1CCCN1Cc1nc2cc(NC(=O)c3ccc4cnccc4c3)ccc2[nH]1 | 53.7% | 37.4% | 68.1% | 26.6% | 43.3% |
